# ChEMBL document CHEMBL3507680, “University of Dundee, Gates Library screen for HepG2 cell viability”
# Experiment: Human HepG2 cell viability assay in 384 well format
# Format: toxicity, cell-based
# Design: dose 125 nL, time 70.5 hour; cytotoxicity at 70.5 h: concentration not given beside the values
# Settings: HepG2 cells, read-out: Inhibition
row,SMILES,cytotoxicity at 70.5 h [%]
1,CC(=O)N[C@@H]1Cc2ccccc2[C@H]1Nc1ccncn1,-5.99
2,CS(=O)(=O)NCC(=O)NCc1cccnc1-n1cnc2ccccc21,17.2
3,COCCOc1ccnc(-c2noc([C@@H]3CCCN3CC3CC3)n2)c1,-9.26
4,Oc1ccccc1CN1CCCCCC1c1cccs1 (stereo unspecified),-5.04
5,Cn1ccc(C(=O)N2CCCC(Cc3cccc4ncccc34)C2)n1 (stereo unspecified),35.2
6,COCc1nc2ncc3c(=O)n(-c4ccc(OC)cc4)ccc3n2n1,-5.86
7,Cc1ccc(CN2CCCC3(COCCN(Cc4c[nH]nn4)C3)C2)s1 (stereo unspecified),19.3
8,O=S(=O)(c1ccc2c(c1)OCCO2)N1CCc2ccccc2C1,-7.73
9,Cc1ccc(C(=O)N(C)Cc2cc(Br)cs2)c(=O)[nH]1,-11.5
10,CN1CC(C(=O)NC(C)(C)C)CC1=O (stereo unspecified),-9.06
11,CN(Cc1cn2c(n1)CN(C(=O)C1CCOCC1)CC2)Cc1ccco1,-1.65
12,O=C(N1CCCC(n2cncn2)C1)C1(c2cccc(F)c2)CC1 (stereo unspecified),-7.31
13,CN(Cc1ccc2nsnc2c1)CC1(O)CNCCOC1 (stereo unspecified),-6.32
14,COc1ccc(CN(CCC#N)CCN2CCOCC2)c(OC)c1,-4.65
15,CC(=O)NC(C(=O)N(C)Cc1nnc2n1CCC2)C(C)C (stereo unspecified),22.2
16,Cc1nc(C(=O)N2CCN(C(=O)C3CCC3)[C@@H]3CS(=O)(=O)C[C@@H]32)cs1,2.83
17,Cc1nccn1CCC1CCCCN1Cc1cnc(N(C)C)nc1 (stereo unspecified),-3.91
18,Nc1nccc(C2CCN(CCO)C2)n1 (stereo unspecified),-21.4
19,c1ccc(CN2CCCC(Cn3cncn3)C2)nc1 (stereo unspecified),20.8
20,CCNc1ncc(C(=O)N(C)Cc2nc3cc(Cl)ccc3[nH]2)cn1,-13.7
21,O=C(c1c[nH]cn1)N1CCCn2c(CN3CCCCC3)nnc2C1,-1.43
22,Cc1cccc(CN2CCc3c(CNC(=O)CC#N)nn(C)c3C2)n1,-0.367
23,Cc1nc(C)n(CC2CCCN2CC(=O)Nc2cc(C(C)C)no2)n1 (stereo unspecified),-13.1

row,SMILES,cytotoxicity at 70.5 h [%]
1,Cc1cc(N2CCC(Cc3ccccc3)CC2)nc(-c2ccncc2)n1,-10.7
2,CN(Cc1cncnc1)[C@@H]1CN(C(=O)C2CC2)[C@@H]2CCCO[C@H]12,-3.07
3,CCn1cc(S(=O)(=O)NCc2ccnc(-n3ccnc3)c2)cn1,-6.31
4,CCCc1c(C(=O)NC2CCCC2)nnn1-c1ccc(OC)cc1,16.8
5,CCOc1cccc(COC(=O)c2cscn2)n1,-4.87
6,COCCC1(CO)CCCN(C(=O)c2ccc(C(C)C)[nH]c2=O)C1 (stereo unspecified),11.1
7,CC(C)OCCS(=O)(=O)N1CCCC1c1cccc(N(C)C)c1 (stereo unspecified),-5.82
8,CCOc1ccc(C2SCC(=O)Nc3c2c(=O)[nH]n3C(CC)CC)cc1 (stereo unspecified),-6.79
9,Cc1ccc(NC(=O)CCc2ccco2)cc1N1CCOC1=O,-10.1
10,COCCNC(=O)[C@H]1C[C@@H]2CCN(c3ncccn3)C[C@H]2O1,-1.44
11,Cc1cccc(N2CCC3(CCCN(C(=O)c4cccnc4)C3)C2)n1 (stereo unspecified),18.7
12,CCC(C)(NCC(N)=O)c1nccs1 (stereo unspecified),-4.9
13,Cn1cc(NC(=O)c2cc3c(s2)CCCC3)cn1,-0.0582
14,CCn1ncc2c1C(COCC1CC1)N(Cc1c(C)noc1C)CC2 (stereo unspecified),0.596
15,COCCOc1ccc(CNc2cnc3ccccc3n2)cn1,-10.9
16,COCCCNC(=O)c1ccccc1S(C)(=O)=O,-13.3
17,Cc1nn(C)c2nc(NC(C)c3nnn[nH]3)sc12 (stereo unspecified),11.9
18,CCc1nc(CN(C)C2CCN(Cc3ccc(Cl)s3)C2)no1 (stereo unspecified),8.41
19,Cc1cnc(NCCCN2CCCCC2CO)nc1 (stereo unspecified),-1.85
20,COc1ccccc1OCCC(=O)N1CCCCC1c1nccs1 (stereo unspecified),0.499
21,CC1CN(CCC(=O)NCCc2cccnc2)Cc2ccccc2O1 (stereo unspecified),9.39
22,Cc1ccc(N2CCN(C3CCc4ccccc4C3)CC2)nn1 (stereo unspecified),-8.25
23,CNS(=O)(=O)CCCN1CCCN(Cc2ccccc2)CC1C (stereo unspecified),14.3
